According to patent US20090088417A1, “VANILLOID RECEPTOR ANTAGONIST FOR PREVENTION AND TREATMENT OF DRUG DEPENDENCE AND ADDICTION” (priority 2006, published 2009):
Entries after “also recorded” stand apart in the source; their conditions may differ.

Tests used:
[1] = cited from earlier work
[2] = tested on: mice; test: Locomotor activity, behavioral sensitization caused by cocaine (displacement from spontaneous movements); format: in vivo, mouse
Experimental: Behavioral sensitization in recurrence of psychological dependence on cocaine was determined according to the locomoter activity. See [Yoo et al. 2003, Neurosci Lett. 433, pp 37-40].
Test animals were divided into four groups as follows: physiological saline was administered to the first test group, cocaine was administered to the second test group, cocaine +2.5 mg/kg of capsazepine (pretreatment) was administered to the third test group, and cocaine +5.0 mg/kg of capsazepine (pretreatment) was administered to the fourth test group.
A locomotor box was used for the test. […] The bottom of the box was covered with a black sheet having substantially the same size as the former.
Step (1)—Basic Test: On the first day, mice were allowed to move freely in the locomotor box for 30 minutes so that they were accommodated.
After the accommodation period, 15 mg/kg of cocaine was administered to the mice via intraperitoneal injection, and then the mice were allowed to remain in the locomotor box. The displacement from spontaneous movements of the mice was measured. […] On the sixth day of the test, the drug was administered again to the mice and the displacement from spontaneous movements was measured. […] Then, displacement from spontaneous movements was measured. […]

[3] = tested on: male ICR mouse; test: Conditioned place preference (CPP) test, development of psychological dependence on cocaine; format: in vivo; conditions: measured on ninth day
Experimental: In the present invention, a conditioned place preference (CPP) test is used to monitor the degree of alleviation in drug dependence and addiction. The CPP system used in the present invention includes a white box, a black box and a pathway connecting the two boxes with each other. Mice are used as test animals and effects on preference/aversion are analyzed by measuring residence times of the mice in the two boxes.
Development of psychological dependence on cocaine was determined according to the CPP (conditioned place preference) test. […]
Step 1 (Basic Test): On the first day of the test, the Guillotine door between the two boxes was opened, and a male ICR mouse having a body weight of 20˜25 g made available by MJ Ltd. (Seoul) was accommodated in the CPP system so that it could move freely therein for 5 minutes. […] Then, residence times of the mouse in the two boxes were measured for 15 minutes to obtain reference values. […]
Step 3 (Test Step): On the ninth day of the test, the Guillotine door between the two boxes was opened, a pathway was provided in the middle of the boxes, and then a mouse, to which no drug was administered, was allowed to remain in the two boxes for 15 minutes. Then, residence times in the white box and in the black box were measured and compared to the values measured on the second day of the test. […]

[4] = tested on: mice; test: CPP test, recurrence of psychological dependence on cocaine after withdrawal; format: in vivo, mouse; conditions: capsazepine 10 mg/kg single-dose pretreatment + cocaine on fifteenth day after 5 days of saline; p<0.05 vs cocaine group
Experimental: The following CPP system was used to perform the test. The CPP system included two boxes, each having a dimension of 15 cm×15 cm×15 cm (width×depth×height). One of the boxes was made of white acryl sheets on three sides thereof, while the other was made of black acryl sheets on three sides thereof. […] Between the two boxes, a gray-colored pathway having a dimension of 3×3×7.5 cm was provided. Also, a Guillotine door capable of interrupting the pathway was provided. […] The test was performed under an illuminance maintained at 20 Lux.
Test animals were divided into four groups. Psychological saline was administered to the first test group (10 mice), and cocaine was administered to the remaining second test group, third test group and fourth test group (30 mice in total). On the ninth day of the test, development of a dependence on cocaine was checked, and then saline was administered alone for the subsequent 5 days to allow the mice to lose the cocaine dependence. […] Residence times in the CPP boxes were measured as described above.

Row | SMILES | Analgesic actions in an animal test ([1]; Kwak et al., 1998, Santos and Calixto, 1997) | Analgesic or anti-inflammatory effect ([1]; Perkins and Campbell, 1992) | Inhibition of behavioral sensitization after drug withdrawal (displacement from spontaneous movements, 60 minutes) ([2]; capsazepine 5 mg/kg pretreated group, cocaine 15 mg/kg on twelfth day after withdrawal period of five days, p<0.01) | Inhibition of behavioral sensitization (displacement from spontaneous movements, 60 minutes) ([2]; capsazepine 5 mg/kg pretreatment + cocaine 15 mg/kg i.p. repeated, sixth day of the test, p<0.001) | Inhibition of development of psychological dependence on cocaine (residence times in CPP boxes) ([3]; capsazepine 2.5 and 5 mg/kg i.p., 30 minutes before cocaine 15 mg/kg i.p., p<0.05 vs cocaine group) | Inhibition of recurrence of psychological dependence on cocaine (residence times in CPP boxes) [4] | Effect on development of psychological dependence on cocaine (residence times in CPP boxes) ([3]; capsaicin 0.3 mg/kg pretreatment + cocaine, p<0.01 vs saline group)
1 | Oc1cc2c(cc1O)CN(C(=S)NCCc1ccc(Cl)cc1)CCC2 [capsazepine] | effective for providing analgesic actions | does not provide an analgesic or anti-inflammatory effect | completely inhibited | significantly inhibits behavioral sensitization caused by cocaine; also recorded: behavioral sensitization was inhibited | significantly inhibits development of psychological dependence on cocaine | significantly inhibits recurrence of dependence on cocaine; also recorded: showed inhibition of such recurrence | –
2 | COc1cc(CNC(=O)CCCC/C=C/C(C)C)ccc1O [capsaicin] | – | – | – | – | – | – | increases dependence on cocaine; also recorded: significant increase in psychological dependence on cocaine
